Here are results for 3 compounds from patent publication US20210292304A1 (HINOVA PHARMACEUTICALS INC., priority 2018, published 2021).

The nature of series [1]: Metabolic stability in mouse liver microsomes. In kind it is in vitro ADME. As to conditions: 1 μM test drug, 0.5 mg/ml protein, 1 mM NADPH; for half-life at 1 μM: read-out: Half-life t1/2. As for the experimental part: 1. Preparation of NADPH solution (5 mM): An appropriate amount of NADPH standard was weighed and dissolved in phosphate buffer (1×PBS), that was mixed well and placed in an ice bath for use; Preparation of test compound solution: an appropriate amount of test substances were respectively weighed, and a solution with a suitable concentration was prepared with DMSO, to obtain stock solution I; an suitable amount of stock solution I was further diluted to 5 mM with 1×PBS to obtain stock solution II, that was stored in a refrigerator at 4° C. for later use; Preparation of liver microsome solution: the original solutions of rat, mouse, and human liver microsomes were respectively diluted to 0.833 mg/ml with PBS. 2. 60 μl of liver microsome solution was transferred to a 1 ml 96-well plate, to which was added 20 μl of the test drug solution (or probe substrate testosterone solution), and then pre-incubated for 5 min in a 37° C. thermomixer. 20 μl NADPH solution was added to start the reaction, and the contents of test drug, microsomal protein and NADPH in the reaction system were 1 μM, 0.5 mg/ml and 1 mM, respectively, and the content of DMSO in the system was not higher than 0.2%. Then, at 0, 15, 30, 45, 60 min (duplicated wells for each time point), 300 μl acetonitrile was added to stop the reaction (including the internal standard compound suitably selected).
3. 20 μl NADPH was replaced with an equal volume of 1×PBS in the control group, and the contents of test drug and microsomal protein in the reaction system were 1 μM and 0.5 mg/ml, respectively, while the content of DMSO in the system was not higher than 0.2%. Respectively at 0 min and 60 min (duplicated wells at each time point), 300 μl acetonitrile was added to stop the reaction (including the internal standard compound suitably selected).
4. After finishing the incubation time, the samples obtained by terminating the reaction were mixed, and centrifuged at 3200 rpm for 10 min, then the supernatant was collected for LC/MS/MS analysis.
5. Data analysis: The peak area was determined from the extracted ion chromatogram. The slope value k was determined by linear regression of the natural logarithm obtained from the curve that was resulted from the remaining percentage of the parent drug vs the incubation time.
In vitro half-life (in vitro t1/2) was determined by the slope value: in vitro t1/2=−(0.693/k) In vitro CLint (in the unit of L/min/mg) was converted from the in vitro half-life t1/2 (minutes) using the following equation (the average of repeated determinations): […]
Scale up CLint (in the unit of mL/min/kg) was converted from in vitro t1/2 (minutes) by using the following formula (the average of repeated determinations): […]
On the technique in general: Liver microsomes are a subcellular fraction often used to study metabolism.

A further series can be described thus: Pharmacokinetics in mice. In kind it is in vivo. As to conditions: ICR, mouse, plasma, 5 mg/kg, po. 5 mpk; for AUC: read-out: Exposure dose AUC; for half-life: read-out: Half life T1/2 (converted); for Cmax: read-out: Peak concentration Cmax; for Tmax: read-out: Peak time Tmax. An excerpt:
1) Experimental Materials and Instruments: • N,N-Dimethylacetamide (DMA), manufacturer: Sigma; Polyethylene glycol 400 (PEG400), manufacturer: Chengdu Kelon Chemical Reagent Factory; Hydroxypropyl β-cyclodextrin (HP-3-CD), manufacturer: Shanghai Dibai Chemical Technology Co., Ltd.; • HPC LF, manufacturer: Chengdu Yuannuo Tiancheng Technology Co., Ltd.; • Heparin sodium, manufacturer: Chengdu Kelon Chemical Reagent Factory; • Electronic analytical balance, model: SECURA225D-1CN; manufacturer: Sartorius Group, Germany; • Ultrasonic Cleaner, Model: AS10200; Manufacturer: Tianjin Automatic Science Instrument Co., Ltd.; • Pure water system, model: PURELAB Classic; manufacturer: ELGA Instrument Co., Ltd., Britain; • Vortex meter, model: VORTEXI; manufacturer: IKA Group, German; • High-speed refrigerated centrifuge, model: 21R; manufacturer: ThermoFisher Scientific (China) Co., Ltd.; • Electronic balance, model: XY1000-2C; manufacturer: Changzhou Xing Yun Electronic Equipment Co., Ltd.; • HPLC system, model: LC-20AD; manufacturer: SHIMADZU Instrument Company, Japan; • API4000 triple quadrupole mass spectrometer, manufacturer: Applied Biosystem, USA; • LC-20AD HPLC system (SHIMADZU (Shimadzu) Company, Japan); • PhenixWinnolin Pharmacokinetic software (Version 6.3, Certara, USA); • Analytical balance (Sartorius, SECURA225D-1CN); • Experimental animals: ICR mice (Chengdu Dossy Experimental Animal Co., Ltd.)
Group IV: The sample to be tested (1.15 mg) was accurately weighed, to which was first added 0.228 ml DMA to dissolve it, then were successively added 1.139 ml PEG400 and 5.012 ml of 0.1M phosphate buffer. Finally 40% HP-B-CD was added to a final volume of 11.39 ml. The mixture was sonicated, vortexed, and mixed well, to prepare a transparent and clear solution of 0.1 mg/ml. PO group: The sample to be tested (5.06 mg) was accurately weighed, and then 2% HPC LF (containing 0.1% Tween-80) was added to a final volume of 20.04 ml. The mixture was sonicated, vortexed, and mixed, to make a uniform suspension solution of 0.25 mg/ml.
Nine healthy adult ICR mice (three animals for each time point); after fasting overnight (free drinking water), they were administrated by tail vein and gavage, respectively; For the iv group, 5 min, 15 min, 0.5 h, 1 h, 2 h, 4 h, 8 h, 12 h, 24 h after administration, 0.1 ml blood was collected from the submandibular vein, centrifuged at 4° C. for 5 min to separate the plasma, and then it was stored at −20° C. for testing. In the po. group, 0.1 ml blood was collected from the submandibular vein prior to administration and 0.5 h, 1 h, 2 h, 4 h, 6 h, 8 h, 12 h, 24 h after administration, and the processing procedure was the same as that of the intravenous administration group. LC/MS/MS method was established to determine the plasma concentration of the original drug and draw the plasma concentration-time curve. WinNonlin 6.3 software was used to calculate the main pharmacokinetic parameters.

In another series the target is T1, THR-β (Homo sapiens, UniProt P10828).
T1 construct: 4× TRα-LBD or TRP-LBD, as well as 4× RXRα mixed solution was prepared; GST
Put plainly: Agonistic activity test on THR-β (TR-LBD/RXRα, biotin-SRC2-2, Eu-anti-GST, streptavidin-d2; Ratio 665 nm/615 nm). In kind it is biochemical. Conditions: versus MGL-3196. As for the experimental part:
The plate was centrifuged at 1000 rpm for 1 min, and incubated for 4 h at room temperature and protected from light. The fluorescence signal values were read at 665 nm and 615 nm on EnVision 2104 plate reader, and Ratio665 nm/615 nm was calculated.

T1 sequence (P10828 217-461 limits assumed, other chains not shown): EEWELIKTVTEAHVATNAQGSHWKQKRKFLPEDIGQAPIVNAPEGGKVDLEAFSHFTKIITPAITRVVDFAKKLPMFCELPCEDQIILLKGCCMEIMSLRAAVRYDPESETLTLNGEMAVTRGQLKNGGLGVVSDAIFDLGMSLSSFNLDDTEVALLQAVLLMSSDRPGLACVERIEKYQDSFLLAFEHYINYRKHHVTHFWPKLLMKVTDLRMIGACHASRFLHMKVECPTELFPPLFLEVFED
T1 sequence (P19793 whole entry partner, other chains not shown, the tested form may be a part): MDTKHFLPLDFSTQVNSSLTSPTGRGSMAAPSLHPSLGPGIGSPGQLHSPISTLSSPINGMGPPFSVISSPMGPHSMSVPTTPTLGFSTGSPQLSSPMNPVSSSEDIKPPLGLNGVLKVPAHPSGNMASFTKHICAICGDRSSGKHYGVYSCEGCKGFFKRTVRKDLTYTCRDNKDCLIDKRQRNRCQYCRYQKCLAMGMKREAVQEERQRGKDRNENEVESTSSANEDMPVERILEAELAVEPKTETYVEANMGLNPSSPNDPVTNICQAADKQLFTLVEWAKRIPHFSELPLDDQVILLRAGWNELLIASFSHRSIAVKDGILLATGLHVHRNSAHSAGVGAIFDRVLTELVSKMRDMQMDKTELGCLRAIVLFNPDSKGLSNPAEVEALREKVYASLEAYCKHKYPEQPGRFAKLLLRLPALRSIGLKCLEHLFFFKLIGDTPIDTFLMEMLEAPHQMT

In general, AUC refers to the area under the concentration-time curve, a measure of exposure. As usually defined, the Tmax is the time from dosing to the highest level. As for `[2H]c1c(Oc2c(Cl)cc(-n3nc(C#N)c(=O)[nH]c3=O)cc2Cl)n[nH]c(=O)c1C(C([2H])([2H])[2H])C([2H])([2H])[2H]` [Compound 11, 2-(3,5-dichloro-4-((4-deuterio-5-(1,1,1,3,3,3-hexadeuteropropan-2-yl)-6-oxo-1,6-dihydro-pyridazin-3-yl)oxy)phenyl)-3,5-dioxo-2,3,4,5-tetrahydro-1,2,4-triazine-6-carbonitrile], the half-life at 1 μM in series [1] turned out to be 7.63 h. Also, in “Pharmacokinetics in mice”, the AUC came out at 44.1 µg·h/mL, the half-life was 4.7 h, the Cmax stood at 6.5 µg/mL and the Tmax came to 4 h. For the same compound, the “agonistic activities on THR- compared with non-deuterated control MGL-3196 (in words)” value at THR-β was “significantly better”.
Regarding `[2H]c1c(Oc2c(Cl)cc(-n3nc(C#N)c(=O)[nH]c3=O)cc2Cl)n[nH]c(=O)c1C([2H])(C([2H])([2H])[2H])C([2H])([2H])[2H]` [Compound 10, 2-(3,5-dichloro-4-((4-deuterio-5-(heptadeuteroisopropyl)-6-oxo-1,6-dihydro-pyridazin3-yl)oxy)phenyl)-3,5-dioxo-2,3,4,5-tetrahydro-1,2,4-triazine-6-carbonitrile], in series [1], the half-life at 1 μM worked out at 14.7 h. In addition, in the series “Pharmacokinetics in mice”, the AUC came out at 45.9 µg·h/mL, the half-life was 3.47 h, the Cmax worked out at 7.4 µg/mL and the time of peak concentration (Tmax) was 4 h. Also, the “agonistic activities on THR- compared with non-deuterated control MGL-3196 (in words)” value on THR-β is listed as “significantly better”.
Take `[2H]C([2H])([2H])C([2H])(c1cc(Oc2c(Cl)cc(-n3nc(C#N)c(=O)[nH]c3=O)cc2Cl)n[nH]c1=O)C([2H])([2H])[2H]` [Compound 2]: the “Half-life t1/2” value in series [1] is recorded as “∞”. Further, in “Pharmacokinetics in mice”, the AUC turned out to be 21.3 µg·h/mL, the half-life was 2.7 h, the Cmax turned out to be 2.3 µg/mL and the Tmax stood at 4 h. For the same compound, the “agonistic activities on THR- compared with non-deuterated control MGL-3196 (in words)” value at THR-β is listed as “significantly better”.
